Measurements taken from patent publication US20130210771A1, “METHODS AND COMPOSITIONS FOR TREATING CANCERS” (IRM LLC, priority 2007, published 2013).
Where a name gives a salt, the structure may show the parent alone.

Key:
[1] = test system: BCR-ABL positive leukemia; test: treatment of mice transplanted with BCR-ABL positive bone marrow (CML-like disease); assay type: in vivo, mouse
Experimental: Ptch+/− mice (Jackson Laboratory), Smo−/− mice (Deltagene), C57BL/6 mice (Jackson laboratory) and B6-Pep3b-Ly5.1 (Pep) mice) are maintained and genotyped as described. For bone marrow transplantation experiments, C57BL/6 males are injected with 5-FU (150 mg/kg) intraperitoneal and sacrificed four days later. Bone marrow mononuclear cells are flushed from the leg bones, red blood cells are lysed with ammonium-chloride and bone marrow cells are cultivated in DMEM containing 10% FBS, SCF, IL-6 and IL-3. Cells are infected with a pMSCV/BCR-ABL/IRES/GFP retrovirus, 5×10^5 mononuclear cells are transplanted into lethally irradiated C57BL/6 mice. Treatment with AMN107 50 mg/kg bid (Novartis, Basel) and cyclopamine 25 mg/kg bid (Novartis, Cambridge) started day 7 after transplantation for 14 days.
Mice transplanted with BCR-ABL positive bone marrow is treated with either a suboptimal dose of the ABL inhibitor AMN107, or with a combination of AMN107 (50 mg/kg qd) and the Smo antagonist cyclopamine (25 mg/kg bid). Treatment is started seven days after transplantation and is continued for fourteen days total. At the end of the treatment, three mice in each group are sacrificed and bone marrow from 1 femur is plated in methyl cellulose colony assays without addition of cytokines to detect only BCR-ABL positive colonies.
Eight days after the end of treatment, another three mice per group are sacrificed and examined for signs of relapse by comparing liver and spleen weight. […] The five remaining mice in each group are monitored for signs of disease and sacrificed when moribund.

[2] = test system: Ba/F3 cells transfected with p210 non-mutated BCR-ABL; details: cited from earlier work
[3] = test system: Ba/F3 cells transfected with E255V mutant BCR-ABL; details: cited from earlier work
[4] = test system: Ba/F3 cells transfected with M351T mutant BCR-ABL; details: cited from earlier work
Gli1 = Gli1 transcript levels in treated bone marrow cultures (Taqman PCR); assay type: cell-based, mouse; details: 2 μM or 5 μM, six hours, normalized to GAPDH (FIG. 2B)
Experimental: RNA is extracted from CD34+ cells from CML patients in chronic phase or blast crisis of disease, from whole bone marrow or from sorted Lin−Kit+Sca+ positive cells using a Qiagen RNA extraction kit according to the manufacturer's recommendation. Quantitative PCR is assessed by Taqman PCR. Primers and probes are obtained from Applied Biosystems.
(§1) Gli1 transcript levels in the bone marrow are reduced after treatment with cyclopamine, verifying the inhibition of the hedgehog signaling pathway in those cells by the compound (FIG. 2B). In FIG. 2B, bone marrow cultures are treated with either DMSO alone or different concentrations of cyclopamine (2 μM or 5 μM) for six hours. RNA is extracted from treated cultures and Gli1 transcript levels are measured by Taqman PCT and normalized to GAPDH. Assays are done in triplicates.

[5] = test system: BCR-ABL positive bone marrow cells; test: in vitro treatment of mixed bone marrow cultures from mice with CML-like syndrome, flow cytometry; assay type: cell-based, mouse
Experimental: (§2) Bone marrow cells from diseased mice are cultured in DMEM media containing 10% FBS (Gibco), SCF (RDI), IL-3 and IL-6 (R&D systems). For in-vitro treatment experiments, 4×10^6 bone marrow or spleen cells are seeded into 1 well of a 6-well plate. Cyclopamine-KAAD (obtained from Toronto Research Chemicals) is dissolved as ×1,000 stock in DMSO. After 72 hours of treatment, cells are plated in methyl cellulose media containing SCF, IL-6, IL-3 and insulin from stem cell technologies (M3434) according to the manufacturer's instruction. Colonies are counted 5 days and 10 days after plating. After 12 days, cells are diluted from the plates, washed in PBS and then either stained for analysis of different cell types or replated into a second or third plating round.
Flow cytometry stainings for analysis of hematological cell types is performed using the antibodies Sca-PE, Kit-APC, Lin markers CD3, Gr-1, CD11b, CD19, Ter119 all PE-Cy7 positive, CD4-PE, CD8-APC from BD Pharmingen according to the manufacturer's instructions. For cell cycle analysis of stem cells, cells are treated with cyclopamine for 48 hours, then stained with Lin markers, Kit-APC and Sca-PE. Stained bone marrow is then fixed in 2% Formalin. Cells are permeabilized with 70% chilled ethanol for at least 1 hour and then treated with propidium iodide (5 mg/ml) for at least 30 minutes. Cells are analyzed using a flow cytometer from Coulter. Annexin staining is performed after incubation of mixed bone marrow with cyclopamine for 24, 48 and 72 hours. Cells are stained with Annexin-PE antibody and 7-AAD (BD Bioscience) according to the manufacturer's instructions.
Bone marrow from mice with CML-like syndrome which contained about 50% BCR-ABL GFP positive cells versus 50% normal bone marrow cells is used. […] GFP positive cells after in vitro treatment with cyclopamine (2 μM or 5 μM) can be detected by flow cytometry analysis.
as §1

Aurora kinases = details: cited from earlier work
[6] = test system: human CML K562 cells selected for resistance to imatinib; details: cited from earlier work
CML = CML therapy; cited from earlier work
[7] = test system: BCR-ABL positive colonies; test: methyl cellulose colony assay of pretreated mixed bone marrow and spleen cultures; assay type: cell-based, mouse; details: 10, 5, 2.5, 1 and 0 uM for 48 hours; colonies counted 10 days after plating, no cytokines (FIG. 2C)
Experimental: as §2
To further validate the effect of hedgehog pathway inhibition on the self renewing progenitor and leukemic stem cell population, mixed bone marrow and spleen cultures are treated with different concentrations of cyclopamine-KAAD (10, 5, 2.5, 1 and 0 uM) for 48 hours. The cells are then plated in methyl cellulose plates without supplementary cytokines, so that only BCR-ABL positive cells can survive. Colonies are counted 10 days after plating.

[8] = eight days after the end of treatment
[9] = mixed bone marrow cultures, 72 hours (FIG. 2A)

## Cc1cn(-c2cc(NC(=O)c3ccc(C)c(Nc4nccc(-c5cccnc5)n4)c3)cc(C(F)(F)F)c2)cn1 [AMN107, nilotinib]
[1]; at the end of the treatment
  peripheral blood cell counts, spleen and liver weights: normal
[1]; [8]
  average spleen size relative to the combination group: about double
  liver weight relative to the combination group: much higher
[1]; five mice per group, sacrificed when moribund (FIG. 5C)
  average survival after end of treatment: eight

## NC(=O)c1cccc(-c2cc(Nc3ccc(OC(F)(F)F)cc3)ncn2)c1 [GNF-2, 3-[6-[[4-(trifluoromethoxy)phenyl]amino]-4-pyrimidinyl]benzamide]
[2]
  proliferation of Ba/F3 cells, p210 non-mutated BCR-ABL: inhibits the proliferation
[3]
  proliferation of Ba/F3 cells, E255V mutant BCR-ABL: inhibits the proliferation
[4]
  proliferation of Ba/F3 cells, M351T mutant BCR-ABL: inhibits the proliferation

## CC1=C2C[C@H]3[C@@H](CC=C4C[C@@H](O)CC[C@@]43C)[C@@H]2CC[C@]12O[C@@H]1C[C@H](C)CN[C@H]1[C@H]2C [cyclopamine]
Gli1
  Gli1 transcript levels in the bone marrow: reduced
[5]; 48 hours, propidium iodide
  alterations in the cell cycle, complete bone marrow: relative increase of the G1 phase compared to S phase and G2 phase
  cell cycle analysis of the leukemic stem cell population: complete loss of the G2 phase
[5]; AnnexinV staining
  apoptosis induction in BCR-ABL positive bone marrow cells, time: ≤ 24 h
[5]; [9]
  reduction of BCR-ABL positive myeloid progenitor cells (Lin−Kit+Sca−): more than 80%
  reduction of the Lin−Kit+Sca+ leukemic stem cell population: around 70%

## Cc1cc(Nc2cc(N3CCN(C)CC3)nc(Sc3ccc(NC(=O)C4CC4)cc3)n2)n[nH]1 [MK-0457]
Aurora kinases
  inhibition of all three Aurora kinases: nanomolar range

## Cc1cc(Nc2ncc3cc(-c4c(Cl)cccc4Cl)c(=O)n(C)c3n2)ccc1F [PD180970]
[6]
  proliferation of imatinib-resistant K562 cells over-expressing Lyn: inhibited

## Cc1ccc(NC(=O)c2ccc(CN3CCN(C)CC3)cc2)cc1Nc1nccc(-c2cccnc2)n1 [Imatinib mesylate]
CML
  response rates: more than 96%

## CC1=C2C[C@H]3[C@@H](CC=C4CC(=O)CC[C@@]43C)[C@@H]2CC[C@]12O[C@@H]1C[C@H](C)CN(CCNC(=O)CCCCCNC(=O)CCc3ccccc3)[C@H]1[C@H]2C [KAAD-cyclopamine]
[7]
  BCR-ABL positive colonies: dose dependent reduction
[5]; mixed bone marrow cultures, three days, 2 μM or 5 μM
  reduction of the GFP/BCR-ABL positive population compared to the GFP negative population: dose dependent reduction
